Results taken from patent publication US12428370B2, “Haloallylamine dual amine oxidase inhibitors” (Syntara Limited, priority 2020, dated 2025).
Counter-ions that a name gives are not always drawn.

Columns and labels:
[1] = molecular target: T1, Muscle and Heart Tissue MAO-B (Mus musculus, UniProt Q8BW75); assay: Mouse muscle and heart tissue MAO-B activity after oral administration; assay type: in vivo; settings: for MAO-B activity in heart and muscle tissue: C57BL/6J mice, single oral dose, FIG. 8
T1 construct: Skeletal muscle was pulverized in liquid nitrogen and then suspended in ice-cold HEPES buffered media; from tissue; host or cells: skeletal muscle and heart of C57BL/6J and mdx mice (mitochondrial extract)
T1 sequence (Q8BW75 1-520): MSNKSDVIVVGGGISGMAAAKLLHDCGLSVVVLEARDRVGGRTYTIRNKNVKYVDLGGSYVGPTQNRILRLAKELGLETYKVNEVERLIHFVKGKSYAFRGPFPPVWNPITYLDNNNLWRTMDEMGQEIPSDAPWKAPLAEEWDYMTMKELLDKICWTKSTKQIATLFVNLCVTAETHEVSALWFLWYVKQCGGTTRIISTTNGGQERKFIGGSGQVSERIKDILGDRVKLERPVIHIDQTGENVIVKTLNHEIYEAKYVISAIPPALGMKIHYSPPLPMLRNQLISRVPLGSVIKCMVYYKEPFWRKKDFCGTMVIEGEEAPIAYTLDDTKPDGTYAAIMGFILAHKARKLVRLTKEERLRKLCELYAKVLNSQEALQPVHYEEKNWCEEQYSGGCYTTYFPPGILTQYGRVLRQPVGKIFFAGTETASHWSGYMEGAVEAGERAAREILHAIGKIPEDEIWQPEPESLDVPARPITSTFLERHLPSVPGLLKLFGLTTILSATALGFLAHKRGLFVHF
Description: (§1) Mice were orally administered the compound under study and sacrificed at various time points and abdominal fat, muscle and heart tissue collected.
(§2) Skeletal muscle was pulverized in liquid nitrogen and then suspended in ice-cold HEPES buffered media (20 mM HEPES, 0.8% w/v free-fatty acid bovine serum albumin (BSA), 75 mM sucrose, 10 mM EDTA, 215 mM D-mannitol, pH 7.4). Homogenized and then centrifuged at 2,500 rpm for 10 minutes at 4° C. Supernatant transferred and centrifuged at 10,000 rpm for 8 minutes. Supernatant discarded and the resultant pellet containing the mitochondrial extract re-suspended in 0.1 M sodium phosphate buffer solution (1:3 ratio).
(§3) Heart muscle was washed with PBS solution three times over ice. Homogenate and extract was then prepared as described for the skeletal muscle.
MAO-B activity was determined by using a specific MAO-A inhibitor (e.g. clorgyline) and an SSAO/VAP-1 inhibitor (e.g. semicarbazide) to establish the high signal. Low signal was established as for the adipose tissue assay (EXAMPLE 13).
(§4) Activity of the treated samples was analyzed using the fluorometric method described in EXAMPLE 9 for SSAO/VAP-1 activity, EXAMPLE 10 for MAO-B and EXAMPLE 11 for MAO-A activity (FIG. 8 and FIG. 9).

[2] = molecular target: T2, Muscle and Heart Tissue MAO-A (Mus musculus, UniProt Q64133); assay: Mouse muscle and heart tissue MAO-A activity after oral administration; assay type: in vivo
T2 construct: Skeletal muscle was pulverized in liquid nitrogen and then suspended in ice-cold HEPES buffered media; from tissue; host or cells: skeletal muscle and heart of C57BL/6J and mdx mice (mitochondrial extract)
T2 sequence (Q64133 1-526): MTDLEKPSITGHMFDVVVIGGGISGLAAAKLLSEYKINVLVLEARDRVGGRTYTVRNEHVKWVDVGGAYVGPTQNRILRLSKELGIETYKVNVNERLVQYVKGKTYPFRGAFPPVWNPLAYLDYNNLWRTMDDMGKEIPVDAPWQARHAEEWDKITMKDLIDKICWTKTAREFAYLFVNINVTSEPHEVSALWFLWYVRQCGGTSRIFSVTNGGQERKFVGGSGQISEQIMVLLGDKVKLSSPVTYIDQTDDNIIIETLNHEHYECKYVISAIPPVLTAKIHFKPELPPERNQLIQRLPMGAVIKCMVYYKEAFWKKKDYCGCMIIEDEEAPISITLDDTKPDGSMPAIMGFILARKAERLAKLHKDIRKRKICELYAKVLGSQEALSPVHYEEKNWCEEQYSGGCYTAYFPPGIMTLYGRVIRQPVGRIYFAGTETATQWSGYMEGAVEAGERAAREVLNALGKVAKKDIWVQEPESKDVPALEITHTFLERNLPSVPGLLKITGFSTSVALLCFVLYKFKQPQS
Description: as §1, §2, §3
MAO-A activity was determined by using a selective MAO-B inhibitor mofegiline (at 30 nM) to establish the high signal and a mixture of specific MAO-A inhibitor (clorgyline) and mofegiline (at 30 nM) to determine the low signal.
as §4

[3] = molecular target: T3, Rat Adipose Tissue SSAO/VAP-1 (Rattus norvegicus, UniProt O08590); assay: Rat adipose tissue SSAO/VAP-1 activity after oral administration; assay type: in vivo, Sprague Dawley rats; settings: single oral dose 0.6 mg/kg, Sprague Dawley rat adipose tissue, FIG. 2
T3 construct: Adipose tissue was homogenized in ice-cold HES buffer; from tissue; host or cells: gonadal fat of Sprague Dawley rats (homogenate supernatant)
T3 sequence (O08590 1-763): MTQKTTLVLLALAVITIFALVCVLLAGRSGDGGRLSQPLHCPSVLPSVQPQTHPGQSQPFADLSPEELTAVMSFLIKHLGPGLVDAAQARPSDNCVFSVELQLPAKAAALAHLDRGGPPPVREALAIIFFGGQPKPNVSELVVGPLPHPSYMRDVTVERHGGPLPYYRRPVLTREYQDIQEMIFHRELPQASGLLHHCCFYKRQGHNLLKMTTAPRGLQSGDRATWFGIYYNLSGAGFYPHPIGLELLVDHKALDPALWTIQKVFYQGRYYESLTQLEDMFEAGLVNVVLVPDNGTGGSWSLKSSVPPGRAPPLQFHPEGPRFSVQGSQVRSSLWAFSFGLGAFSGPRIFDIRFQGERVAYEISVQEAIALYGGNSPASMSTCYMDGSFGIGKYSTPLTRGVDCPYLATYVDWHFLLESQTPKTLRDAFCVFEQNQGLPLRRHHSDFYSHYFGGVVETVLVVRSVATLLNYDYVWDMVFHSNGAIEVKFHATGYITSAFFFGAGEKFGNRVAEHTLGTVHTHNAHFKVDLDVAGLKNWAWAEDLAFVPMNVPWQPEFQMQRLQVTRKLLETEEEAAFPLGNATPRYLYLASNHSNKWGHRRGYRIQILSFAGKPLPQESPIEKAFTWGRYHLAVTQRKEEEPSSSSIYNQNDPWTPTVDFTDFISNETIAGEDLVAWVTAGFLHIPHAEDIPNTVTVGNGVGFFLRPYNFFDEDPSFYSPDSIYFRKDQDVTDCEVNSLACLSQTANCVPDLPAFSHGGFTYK
Description: Sprague Dawley rats were orally administered the compound under study and sacrificed at various time points and gonadal fat and brain tissue collected.
Adipose tissue was homogenized in ice-cold HES buffer (20 mM HEPES, 1 mM EDTA, sucrose 250 mM, proteases and phosphatases inhibitor, pH 7.4). Homogenate was then centrifuged at 2000 rpm for 5 minutes at 4° C. and the resultant supernatant portion (minus the lipid top layer) used for assay. SSAO/VAP-1 activity was determined by using a non-specific MAO inhibitor (e.g. pargyline) to establish the high signal and a mixture of non-specific MAO inhibitor and an SSAO/VAP-1 inhibitor (e.g. semicarbazide) to determine the low signal.
Activity of the treated samples was analyzed using the fluorometric method described in EXAMPLE 9 for SSAO/VAP-1 activity and EXAMPLE 10 for MAO-B.

Row | SMILES | MAO-B activity in heart and muscle tissue ([1]; 24-hour time point) | MAO-B activity in heart and muscle tissue ([1]; various doses, 4 hours after administration) | muscle MAO-B activity ([1]; mdx mice (C57BL/10ScSn-Dmdmdx/J), oral, FIG. 10) | heart and muscle MAO-A activity ([2]; C57BL/6J mice, single oral dose, 4 and 24 hours after administration, FIG. 9) | muscle MAO-A activity ([2]; mdx mice (C57BL/10ScSn-Dmdmdx/J), oral, FIG. 11) | duration of inhibition of SSAO/VAP-1 enzyme activity [3]
1 | N#Cc1ccc(OC/C(=C/F)CN)cc1 [Compound 1, (E)-4-((2-(aminomethyl)-3-fluoroallyl)oxy) benzonitrile] | inhibition of the enzyme activity is still evident | dose-related reduction | completely inhibits | no inhibitory effect | no inhibitory effect | –
2 | NC/C(=C\F)C1Cc2ccccc2O1 (single isomer, unassigned; (-)) [PXS-5131, (−)-(E)-2-(2,3-Dihydrobenzofuran-2-Yl)-3-Fluoroprop-2-En-1-Amine Hydrochloride] | – | – | – | – | – | greater than 24 hours
